# Measurements published in US5756531A, “Iminoxy derivatives of indole and indene compounds as inhibitors of prostaglandin biosynthesis” (Abbott Laboratories, priority 1996, dated 1998).
# Tests used:
# [1] = biological target: T1, recombinant human PGHS-1 (prostaglandin hydroperoxidase -1, cyclooxygenase-1) (Homo sapiens, UniProt P23219); test: Recombinant Human PGHS-1 enzyme assay (PGE2 production by EIA); assay type: biochemical; settings: 60 min preincubation; 10 μM arachidonic acid
# T1 construct: made in house; host or cells: baculovirus/Sf9 insect cells (microsomes)
# T1 sequence (P23219 24-599): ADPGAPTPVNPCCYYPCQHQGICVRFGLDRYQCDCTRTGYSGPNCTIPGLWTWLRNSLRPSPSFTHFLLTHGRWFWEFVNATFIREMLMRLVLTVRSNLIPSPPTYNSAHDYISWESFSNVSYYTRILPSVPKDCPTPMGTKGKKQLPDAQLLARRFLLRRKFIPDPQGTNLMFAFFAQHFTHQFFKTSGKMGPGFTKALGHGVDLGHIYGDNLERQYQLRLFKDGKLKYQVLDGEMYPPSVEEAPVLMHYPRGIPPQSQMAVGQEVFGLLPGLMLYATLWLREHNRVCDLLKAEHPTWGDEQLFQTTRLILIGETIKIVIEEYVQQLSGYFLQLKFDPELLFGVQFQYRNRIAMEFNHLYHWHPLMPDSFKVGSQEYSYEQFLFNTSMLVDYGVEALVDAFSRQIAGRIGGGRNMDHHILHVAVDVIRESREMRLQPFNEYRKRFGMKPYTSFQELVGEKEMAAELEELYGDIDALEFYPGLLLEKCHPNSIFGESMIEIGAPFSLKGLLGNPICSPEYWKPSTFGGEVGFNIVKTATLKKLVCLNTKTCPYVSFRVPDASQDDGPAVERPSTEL
# Method: 1. recombinant human prostaglandin hydroperoxidase -1 (cyclooxygenase-1)
# (§1) Compound dissolved in DMSO (3.3% v/v) was preincubated with microsomes from recombinant human PGHS-1 or PGHS-2 expressed in the baculovirus/Sf9 cell system (Gierse, J. K., Hauser, S. D., Creely, D. P., Koboldt, C., Rangwala, S., H., Isakson, P. C., and Seibert, K. Expression and selective inhibition of the constituitive and inducible forms of cyclooxygenase Biochem J. 1995, 305: 479.), together with the cofactors phenol (2 mM) and hematin (1 μM) for 60 minutes prior to the addition of 10 μM arachidonic acid. The reaction was allowed to run for 2.5 minutes at room temperature prior to quenching with HCl and neutralization with NaOH. PGE2 production in the presence and absence of the drug was determined by EIA analysis.
# (§2) EIA reagents for prostaglandin determination were purchased from Perseptive Diagnostics, Cambridge, Mass. PGE2 levels in lavage fluids were determined after the samples were dried under nitrogen and reconstituted with assay buffer. PGE2 levels in enzyme assays or cell culture media were measured against standards prepared in the same milieu. The immunoassays were conducted as recommended by the manufacturer. The EIA was conducted in 96 well microtiter plates (Nunc Roskilde, Denmark) and optical density measured using a microplate reader (Vmax, Molecular Devices Corp., Menlo Park, Calif.).
# [2] = biological target: T2, recombinant human PGHS-2 (prostaglandin hydroperoxidase -2, cyclooxygenase-2) (Homo sapiens, UniProt P35354); test: Recombinant Human PGHS-2 enzyme assay (PGE2 production by EIA); assay type: biochemical; settings: 60 min preincubation; 10 μM arachidonic acid
# T2 construct: made in house; host or cells: baculovirus/Sf9 insect cells (microsomes)
# T2 sequence (P35354 18-604): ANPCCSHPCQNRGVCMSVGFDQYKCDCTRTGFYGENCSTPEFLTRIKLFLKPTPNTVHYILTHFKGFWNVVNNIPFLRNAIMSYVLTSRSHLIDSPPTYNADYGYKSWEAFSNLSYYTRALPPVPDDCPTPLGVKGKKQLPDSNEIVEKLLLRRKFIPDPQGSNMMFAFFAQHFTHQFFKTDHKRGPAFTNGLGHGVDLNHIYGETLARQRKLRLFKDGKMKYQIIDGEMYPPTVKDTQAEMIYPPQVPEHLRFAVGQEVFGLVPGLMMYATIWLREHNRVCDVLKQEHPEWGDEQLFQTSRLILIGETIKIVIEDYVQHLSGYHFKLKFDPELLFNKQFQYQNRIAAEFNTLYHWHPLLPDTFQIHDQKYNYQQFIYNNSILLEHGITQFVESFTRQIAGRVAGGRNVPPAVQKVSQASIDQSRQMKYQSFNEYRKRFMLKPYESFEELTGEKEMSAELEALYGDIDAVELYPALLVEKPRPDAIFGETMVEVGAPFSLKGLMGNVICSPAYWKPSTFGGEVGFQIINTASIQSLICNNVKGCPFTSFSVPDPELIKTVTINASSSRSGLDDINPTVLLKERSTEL
# Method: 2. recombinant human prostaglandin hydroperoxidase -2 (cyclooxygenase-2)
# as §1, §2
# PGHS-1 = settings: in words; cited from earlier work
# PGHS-2 = settings: in words; cited from earlier work
compound,measurement,setting,value
"COc1ccc2c(c1)c(CCON=C(C)/C=C/C(=O)O)c(C)n2C(=O)c1ccc(Cl)cc1 [Example 6, 4-oxopent-2-enoic acid-2-O-[2-(4-chlorobenzoyl-5-methoxy-2-methylindol-3-yl)ethyl] oxime]",IC50,[1],52 µM
same,IC50,[2],0.07 µM
"COc1ccc2c(c1)c(CCON=CC(O)CO)c(C)n2C(=O)c1ccc(Cl)cc1 (stereo not drawn) [Example 7, glyceraldehyde-O-[2-(1-(4-chlorobenzoyl)-5-methoxy-2-methylindol-3-yl)ethyl] oxime]",IC50,[1],24 µM
same,IC50,[2],0.06 µM
"COc1ccc2c(c1)c(CC(=O)O)c(C)n2C(=O)c1ccc(Cl)cc1 [Indomethacin, indomethacin]",inhibition of PGHS-1,PGHS-1,inhibit both PGHS-1 and PGHS-2
same,inhibition of PGHS-2,PGHS-2,inhibit both PGHS-1 and PGHS-2
CC(C)Cc1ccc(C(C)C(=O)O)cc1 (stereo not drawn) [ibuprofen],inhibition of PGHS-1,PGHS-1,inhibit both isozymes
same,inhibition of PGHS-2,PGHS-2,inhibit both isozymes
COc1ccc2cc([C@H](C)C(=O)O)ccc2c1 [naproxen],inhibition of PGHS-1,PGHS-1,inhibit both isozymes
same,inhibition of PGHS-2,PGHS-2,inhibit both isozymes
CC1=C(CC(=O)O)c2cc(F)ccc2/C1=C\c1ccc([S+](C)[O-])cc1 (stereo not drawn) [sulindac],inhibition of PGHS-1,PGHS-1,inhibit both PGHS-1 and PGHS-2
same,inhibition of PGHS-2,PGHS-2,inhibit both PGHS-1 and PGHS-2
